Measurements reported in patent US5137892A, “Quinoline, naphthyridine and pyridobenzoxazine derivatives” (Abbott Laboratories, priority 1990, dated 1992).
Converted amounts (≈) assume the structure as drawn.

What was measured:
Type in all cases: cell-based
[1] = test system: Pseudomonas aeruginosa K599/61; details: P. aeruginosa K599/61; BHI agar dilution, 20-24 hours; unit assumed
Method: (§1) The activity of the compounds of the present invention was tested against a wide variety of bacteria using standard assay procedures. Minimum inhibitory concentrations (MICs) were determined by the agar dilution method, described below, using Brain Heart Infusion agar.
(§2) Twelve petri dishes were prepared, each containing successive aqueous 2-fold dilutions of the test compounds mixed with 10 mL of sterilized Brain Heart Infusion (BHI) agar. Each plate was inoculated with 100-fold (or 10-fold, for slow-growing strains such as Micrococcus and Streptococcus) dilutions of up to 32 different microorganisms using a Steers replicator block calibrated to deliver approximately 10^4 colony forming units (CFUs). The inoculated plates were incubated at about 35°-37° C. for approximately 20-24 hours. In addition, a control plate, using BHI agar containing no test compound, was prepared and incubated at the beginning and at the end of each test. Ciprofloxacin was used as the reference antibiotic.
(§3) The MIC was defined as the lowest concentration of test compound yielding no growth (a slight haze or sparsely isolated colonies at the inoculum spot as compared to the growth control contaning no test compound.

[2] = test system: Streptococcus agalactaciae CMX 508; test: In Vitro Antibacterial Activity, agar dilution MIC; details: S. agalactaciae CMX 508; BHI agar dilution, 20-24 hours; unit assumed
Method: as §1, §2, §3

[3] = test system: Providencia stuartii CMX 640; test: In Vitro Antibacterial Activity, agar dilution MIC; details: P. stuartii CMX 640; BHI agar dilution, 20-24 hours; unit assumed
Method: as §1, §2, §3

[4] = test system: Enterococcus faecium ATCC 8043; test: In Vitro Antibacterial Activity, agar dilution MIC; details: E. faecium ATCC 8043; BHI agar dilution, 20-24 hours; unit assumed
Method: as §1, §2, §3

[5] = test system: Staphylococcus aureus A-5278; test: In Vitro Antibacterial Activity, agar dilution MIC; details: S. aureus A-5278; BHI agar dilution, 20-24 hours; unit assumed
Method: as §1, §2, §3

[6] = test system: Streptococcus pyogenes EES61; test: In Vitro Antibacterial Activity, agar dilution MIC; details: S. pyogenes EES61; BHI agar dilution, 20-24 hours; unit assumed
Method: as §1, §2, §3

[7] = test system: Escherichia coli DC-2; test: In Vitro Antibacterial Activity, agar dilution MIC; details: E. coli DC-2; BHI agar dilution, 20-24 hours; unit assumed
Method: as §1, §2, §3

[8] = test system: Pseudomonas aeruginosa 2862; test: In Vitro Antibacterial Activity, agar dilution MIC; details: P. aeruginosa 2862; BHI agar dilution, 20-24 hours; unit assumed
Method: as §1, §2, §3

[9] = test system: Micrococcus luteus ATCC 4698; test: In Vitro Antibacterial Activity, agar dilution MIC; details: M. luteus ATCC 4698; BHI agar dilution, 20-24 hours; unit assumed
Method: as §1, §2, §3

[10] = test system: Staphylococcus aureus 45; test: In Vitro Antibacterial Activity, agar dilution MIC; details: S. aureus 45; BHI agar dilution, 20-24 hours; unit assumed
Method: as §1, §2, §3

[11] = test system: Staphylococcus aureus ATCC 6538P; test: In Vitro Antibacterial Activity, agar dilution MIC; details: S. aureus ATCC 6538P; BHI agar dilution, 20-24 hours; unit assumed
Method: as §1, §2, §3

[12] = test system: Streptococcus pyogenes 2548 INDUC; test: In Vitro Antibacterial Activity, agar dilution MIC; details: S. pyogenes 2548 INDUC; BHI agar dilution, 20-24 hours; unit assumed
Method: as §1, §2, §3

[13] = test system: Streptococcus bovis A5169; test: In Vitro Antibacterial Activity, agar dilution MIC; details: S. bovis A5169; BHI agar dilution, 20-24 hours; unit assumed
Method: as §1, §2, §3

[14] = test system: Staphylococcus aureus A5177; test: In Vitro Antibacterial Activity, agar dilution MIC; details: S. aureus A5177; BHI agar dilution, 20-24 hours; unit assumed
Method: as §1, §2, §3

[15] = test system: Acinetobacter SP CMX 699; test: In Vitro Antibacterial Activity, agar dilution MIC; details: BHI agar dilution, 20-24 hours, unit assumed
Method: as §1, §2, §3

[16] = test system: Escherichia coli H560; test: In Vitro Antibacterial Activity, agar dilution MIC; details: E. coli H560; BHI agar dilution, 20-24 hours; unit assumed
Method: as §1, §2, §3

[17] = test system: Enterobacter aerogenes ATCC 13048; test: In Vitro Antibacterial Activity, agar dilution MIC; details: E. aerogenes ATCC 13048; BHI agar dilution, 20-24 hours; unit assumed
Method: as §1, §2, §3

[18] = test system: Pseudomonas aeruginosa A5007; test: In Vitro Antibacterial Activity, agar dilution MIC; details: P. aeruginosa A5007; BHI agar dilution, 20-24 hours; unit assumed
Method: as §1, §2, §3

[19] = test system: Pseudomonas cepacia 2961; test: In Vitro Antibacterial Activity, agar dilution MIC; details: P. cepacia 2961; BHI agar dilution, 20-24 hours; unit assumed
Method: as §1, §2, §3

[20] = test system: Escherichia coli JUHL; test: In Vitro Antibacterial Activity, agar dilution MIC; details: E. coli JUHL; BHI agar dilution, 20-24 hours; unit assumed
Method: as §1, §2, §3

[21] = test system: Staphylococcus aureus 1775; test: In Vitro Antibacterial Activity, agar dilution MIC; details: S. aureus 1775; BHI agar dilution, 20-24 hours; unit assumed
Method: as §1, §2, §3

[22] = test system: Streptococcus pyogenes 930 CONST; test: In Vitro Antibacterial Activity, agar dilution MIC; details: S. pyogenes 930 CONST; BHI agar dilution, 20-24 hours; unit assumed
Method: as §1, §2, §3

[23] = test system: Escherichia coli SS; test: In Vitro Antibacterial Activity, agar dilution MIC; details: E. coli SS; BHI agar dilution, 20-24 hours; unit assumed
Method: as §1, §2, §3

[24] = test system: Pseudomonas aeruginosa K799/WT; test: In Vitro Antibacterial Activity, agar dilution MIC; details: P. aeruginosa K799/WT; BHI agar dilution, 20-24 hours; unit assumed
Method: as §1, §2, §3

[25] = test system: Escherichia coli KNK 437; test: In Vitro Antibacterial Activity, agar dilution MIC; details: E. coli KNK 437; BHI agar dilution, 20-24 hours; unit assumed
Method: as §1, §2, §3

[26] = test system: Pseudomonas aeruginosa BMH10; test: In Vitro Antibacterial Activity, agar dilution MIC; details: P. aeruginosa BMH10; BHI agar dilution, 20-24 hours; unit assumed
Method: as §1, §2, §3

[27] = test system: Micrococcus luteus ATCC 9341; test: In Vitro Antibacterial Activity, agar dilution MIC; details: M. luteus ATCC 9341; BHI agar dilution, 20-24 hours; unit assumed
Method: as §1, §2, §3

[28] = test system: Staphylococcus aureus NCTC 10649; test: In Vitro Antibacterial Activity, agar dilution MIC; details: S. aureus NCTC 10649; BHI agar dilution, 20-24 hours; unit assumed
Method: as §1, §2, §3

[29] = test system: Pseudomonas aeruginosa 5263; test: In Vitro Antibacterial Activity, agar dilution MIC; details: P. aeruginosa 5263; BHI agar dilution, 20-24 hours; unit assumed
Method: as §1, §2, §3

[30] = test system: Klebsiella pneumoniae ATCC 8045; test: In Vitro Antibacterial Activity, agar dilution MIC; details: K. pneumoniae ATCC 8045; BHI agar dilution, 20-24 hours; unit assumed
Method: as §1, §2, §3

[31] = test system: Staphylococcus aureus 642A; test: In Vitro Antibacterial Activity, agar dilution MIC; details: S. aureus 642A; BHI agar dilution, 20-24 hours; unit assumed
Method: as §1, §2, §3

[32] = test system: Staphylococcus epidermidis 3519; test: In Vitro Antibacterial Activity, agar dilution MIC; details: S. epidermidis 3519; BHI agar dilution, 20-24 hours; unit assumed
Method: as §1, §2, §3

[33] = test system: Staphylococcus aureus CMX 553; test: In Vitro Antibacterial Activity, agar dilution MIC; details: S. aureus CMX 553; BHI agar dilution, 20-24 hours; unit assumed
Method: as §1, §2, §3

| SMILES | MIC values [1] [µg/mL] | MIC values [2] [µg/mL] | MIC values [3] [µg/mL] | MIC values [4] [µg/mL] | MIC values [6] [µg/mL] | MIC values [7] [µg/mL] | MIC values [9] [µg/mL] | MIC values [10] [µg/mL] | MIC values [11] [µg/mL] | MIC values [12] [µg/mL] | MIC values [13] [µg/mL] | MIC values [14] [µg/mL] | MIC values [15] [µg/mL] | MIC values [16] [µg/mL] | MIC values [17] [µg/mL] | MIC values [18] [µg/mL] | MIC values [19] [µg/mL] | MIC values [20] [µg/mL] | MIC values [21] [µg/mL] | MIC values [22] [µg/mL] | other results |
| --- | --- | --- | --- | --- | --- | --- | --- | --- | --- | --- | --- | --- | --- | --- | --- | --- | --- | --- | --- | --- | --- |
| O=C(O)c1cn(C2CC2)c2cc(N3CCNCC3)c(F)cc2c1=O [Cipro, Ciprofloxacin, reference compound] | 0.02 (≈ 0.0604 µM) | 0.39 (≈ 1.18 µM) | 0.78 (≈ 2.35 µM) | 0.39 (≈ 1.18 µM) | 0.39 (≈ 1.18 µM) | 0.2 (≈ 0.604 µM) | 0.78 (≈ 2.35 µM) | 0.78 (≈ 2.35 µM) | 0.2 (≈ 0.604 µM) | 0.39 (≈ 1.18 µM) | 1.56 (≈ 4.71 µM) | 0.39 (≈ 1.18 µM) | 0.39 (≈ 1.18 µM) | 0.01 (≈ 0.0302 µM) | 0.05 (≈ 0.151 µM) | 0.1 (≈ 0.302 µM) | 3.1 (≈ 9.36 µM) | 0.02 (≈ 0.0604 µM) | > 100 | 0.78 (≈ 2.35 µM) | MIC values [5]: 0.39 µg/mL (≈ 1.18 µM); MIC values [8]: 25 µg/mL (≈ 75.4 µM); MIC values [23]: 0.005 µg/mL (≈ 0.0151 µM); MIC values [24]: 0.1 µg/mL (≈ 0.302 µM); MIC values [25]: 0.2 µg/mL (≈ 0.604 µM); MIC values [26]: 0.05 µg/mL (≈ 0.151 µM); MIC values [27]: 1.56 µg/mL (≈ 4.71 µM); MIC values [28]: 0.39 µg/mL (≈ 1.18 µM); MIC values [29]: 12.5 µg/mL (≈ 37.7 µM); MIC values [30]: 0.02 µg/mL (≈ 0.0604 µM); MIC values [31]: 0.39 µg/mL (≈ 1.18 µM); MIC values [32]: 0.2 µg/mL (≈ 0.604 µM); MIC values [33]: 0.78 µg/mL (≈ 2.35 µM) |
| Cl.Cl.NCC1COC2(CCN(c3cc4c(cc3F)c(=O)c(C(=O)O)cn4-c3ccc(F)cc3F)C2)O1 (stereo not drawn) [Example 159, 1-(2,4-difluorophenyl)-7-(2-aminomethyl-1,4-dioxa-7-azaspiro[4.4]non-7-yl)-6-fluoro-1,4-dihydro-4-oxo-3-quinolinecarboxylic acid dihydrochloride] | 0.39 | 0.78 | 25 | 0.78 | 0.39 | 6.2 | 6.2 | 0.78 | 0.2 | 0.39 | 0.78 | 0.39 | 0.78 | 0.2 | 0.78 | 3.1 | 50 | 0.39 | 100 | 0.39 | MIC values [23]: 0.02 µg/mL; MIC values [24]: 3.1 µg/mL; MIC values [25]: 3.1 µg/mL; MIC values [26]: 3.1 µg/mL; MIC values [27]: 12.5 µg/mL; MIC values [28]: 0.2 µg/mL; MIC values [30]: 0.39 µg/mL; MIC values [31]: 0.39 µg/mL; MIC values [32]: 0.78 µg/mL; MIC values [33]: 0.78 µg/mL |
